Results: EP4563146A1 (IRBM S.P.A., priority 2023, dated 2025)
Read-outs that look alike come from different tables or passages of the source.

System: ZIKV replicon
Test: ZIKV replication inhibition assay (NanoLuc replicon in Vero cells)
Settings: Zika virus, Vero, 72 h
[1] = read-out: ZIKA Cell_Nanoluc, Vero cells with stable ZIKV replicon, 72 h, Nano-Glo readout

`Cc1noc(C)c1-c1ccc([C@H](CN)[n+]2cc([N-]C(=O)Nc3cc(NC(=O)Cc4ccccc4)cc(C(F)(F)F)c3)on2)cc1` [Example 23, (R)-(3-(2-Amino-1-(4-(3,5-dimethylisoxazol-4-yl)phenyl)ethyl)-1,2,3-oxadiazol-3-ium-5-yl)((3-(2-phenylacetamido)-5-(trifluoromethyl)phenyl)-carbamoyl)amide] showed an EC50 [1] of 1000 to 20000 nM.
Work on `N#Cc1ccn(C2(C(=O)Nc3cc(NC(=O)[N-]c4c[n+](Cc5ccccn5)no4)cc(C(F)(F)F)c3)CC2)n1` [Example 71] yielded an EC50 (read-out: ZIKA Cell_Nanoluc) of 1000 to 20000 nM.
Work on `N[C@H]1CC[C@@H](C[n+]2cc([N-]C(=O)Nc3cc(N4CCC(c5ccccc5)C4=O)cc(C(F)(F)F)c3)on2)CC1` (stereo partly drawn) [Example 131, (3-(((1S,4S)-4-Aminocyclohexyl)methyl)-1,2,3-oxadiazol-3-ium-5-yl)((3-(2-oxo-3-phenylpyrrolidin-1-yl)-5-(trifluoromethyl)-phenyl)carbamoyl)amide] yielded an EC50 (read-out: ZIKA Cell_Nanoluc) of 1000 to 20000 nM.
`O=C([N-]c1c[n+](Cc2ccccn2)no1)Nc1cc(NC(=O)c2ccon2)cc(C(F)(F)F)c1` [Example 44] showed an EC50 (read-out: ZIKA Cell_Nanoluc) of 1000 to 20000 nM.
`O=C(Cc1ccc2nc[nH]c2c1)Nc1cc(NC(=O)[N-]c2c[n+](Cc3ccccn3)no2)cc(C(F)(F)F)c1` [Example 124, ((3-(2-(1H-Benzo[d]imidazol-6-yl)acetamido)-5-(trifluoromethyl)phenyl)carbamoyl)(3-(pyridin-2-ylmethyl)-1,2,3-oxadiazol-3-ium-5-yl)amide] was tested, and the EC50 [1] was greater than 20000 nM.
With `O=C([N-]c1c[n+](Cc2ccccn2)no1)Nc1cc(N2CC(c3ccccc3)CC2=O)cc(C(F)(F)F)c1` (stereo not drawn) [Example 122, ((3-(2-Oxo-4-phenylpyrrolidin-1-yl)-5-(trifluoromethyl)phenyl)carbamoyl)(3-(pyridin-2-ylmethyl)-1,2,3-oxadiazol-3-ium-5-yl)amide] the EC50 [1] was 1000 to 20000 nM.
`Nc1ccc(CC(=O)Nc2cc(NC(=O)[N-]c3c[n+](Cc4ccccn4)no3)cc(C(F)(F)F)c2)cn1` [Example 42] gave an EC50 (read-out: ZIKA Cell_Nanoluc) of 1000 to 20000 nM.
`O=C(Cc1ccccc1)Nc1cc(NC(=O)[N-]c2c[n+](CC3CCCNC3)no2)cc(C(F)(F)F)c1` (stereo not drawn) [Example 110, ((3-(2-Phenylacetamido)-5-(trifluoromethyl)phenyl)carbamoyl)(3-(piperidin-3-ylmethyl)-1,2,3-oxadiazol-3-ium-5-yl)amide] showed an EC50 [1] greater than 20000 nM.
Work on `Cn1cnnc1COCC(=O)Nc1cc(NC(=O)[N-]c2c[n+](Cc3ccccn3)no2)cc(C(F)(F)F)c1` [Example 72] yielded an EC50 (read-out: ZIKA Cell_Nanoluc) greater than 20000 nM.
`COC(=O)Cc1ccc(C[n+]2cc([N-]C(=O)Nc3cc(NC(=O)Cc4ccccc4)cc(C(F)(F)F)c3)on2)cc1` [Example 109, (3-(4-(2-Methoxy-2-oxoethyl)benzyl)-1,2,3-oxadiazol-3-ium-5-yl)((3-(2-phenylacetamido)-5-(trifluoromethyl)phenyl)carbamoyl)amide] was tested, and the EC50 [1] was 100 to 1000 nM.
`COc1ncc(-c2ccc(C[n+]3cc([N-]C(=O)Nc4cc(NC(=O)C5CCCC5)cc(C(F)(F)F)c4)on3)cc2)c(C)n1` [Example 18] gave an EC50 (read-out: ZIKA Cell_Nanoluc) of 100 to 1000 nM.
Molecule `Cc1nc(CC(=O)Nc2cc(NC(=O)[N-]c3c[n+](Cc4ccccn4)no3)cc(C(F)(F)F)c2)cs1` [Example 41, ((3-(2-(2-Methylthiazol-4-yl)acetamido)-5-(trifluoromethyl)phenyl)-carbamoyl)(3-(pyridin-2-ylmethyl)-1,2,3-oxadiazol-3-ium-5-yl)amide] has an EC50 [1] of 1000 to 20000 nM.
`CC(C)n1ccc(C(=O)Nc2cc(NC(=O)[N-]c3c[n+](Cc4ccccn4)no3)cc(C(F)(F)F)c2)n1` [Example 48] showed an EC50 (read-out: ZIKA Cell_Nanoluc) of 1000 to 20000 nM.
`O=C(C#Cc1ccccc1)Nc1cc(NC(=O)[N-]c2c[n+](Cc3ccccn3)no2)cc(C(F)(F)F)c1` [Example 46] gave an EC50 (read-out: ZIKA Cell_Nanoluc) of 1000 to 20000 nM.
Molecule `NCc1ccccc1-c1ccc(C[n+]2cc([N-]C(=O)Nc3cc(NC(=O)Cc4ccccc4)cc(C(F)(F)F)c3)on2)nc1` [Example 5, (3-((5-(2-(Aminomethyl)phenyl)pyridin-2-yl)methyl)-1,2,3-oxadiazol-3-ium-5-yl)((3-(2-phenylacetamido)-5-(trifluoromethyl)phenyl)carbamoyl)amide] has an EC50 [1] of 1000 to 20000 nM.
With `O=C(Cc1ccccc1)Nc1cc(NC(=O)[N-]c2c[n+](Cc3ccc(Br)cn3)no2)cc(C(F)(F)F)c1` [Example 12, (3-((5-Bromopyridin-2-yl)methyl)-1,2,3-oxadiazol-3-ium-5-yl)((3-(2-phenylacetamido)-5-(trifluoromethyl)phenyl)carbamoyl)amide] the EC50 [1] was 100 to 1000 nM.
Work on `Cn1ccc(CC(=O)Nc2cc(NC(=O)[N-]c3c[n+](Cc4ccccn4)no3)cc(C(F)(F)F)c2)n1` [Example 40] yielded an EC50 (read-out: ZIKA Cell_Nanoluc) of 1000 to 20000 nM.
In the case of `COC(=O)c1ccc(C[n+]2cc([N-]C(=O)Nc3cc(NC(=O)Cc4ccccc4)cc(C(F)(F)F)c3)on2)nc1` [Example 113, (3-((5-(Methoxycarbonyl)pyridin-2-yl)methyl)-1,2,3-oxadiazol-3-ium-5-yl)((3-(2-phenylacetamido)-5-(trifluoromethyl)phenyl)carbamoyl)amide], the EC50 [1] is reported as 1000 to 20000 nM.
Molecule `NCc1ccc(CC(=O)Nc2cc(NC(=O)[N-]c3c[n+](Cc4ccccn4)no3)cc(C(F)(F)F)c2)cc1` [Example 27, ((3-(2-(4-(Aminomethyl)phenyl)acetamido)-5-(trifluoromethyl)phenyl)carbamoyl)(3-(pyridin-2-ylmethyl)-1,2,3-oxadiazol-3-ium-5-yl)amide] has an EC50 [1] of 1000 to 20000 nM.
`O=C([N-]c1c[n+](Cc2ccccn2)no1)Nc1cc(NC(=O)C2CC(F)(F)C23CCC3)cc(C(F)(F)F)c1` (stereo not drawn) [Example 85] was tested, and the EC50 (read-out: ZIKA Cell_Nanoluc) was 1000 to 20000 nM.
With `N[C@H]1CC[C@H](C[n+]2cc([N-]C(=O)Nc3cc(N4CCC(c5ccccc5)C4=O)cc(C(F)(F)F)c3)on2)CC1` (stereo partly drawn) [Example 132, (3-(((1R,4R)-4-Aminocyclohexyl)methyl)-1,2,3-oxadiazol-3-ium-5-yl)((3-(2-oxo-3-phenylpyrrolidin-1-yl)-5-(trifluoromethyl)-phenyl)carbamoyl)amide] the EC50 (read-out: ZIKA Cell_Nanoluc) was greater than 20000 nM.
In the case of `NC[C@H]1CC[C@@H](C[n+]2cc([N-]C(=O)Nc3cc(N4CCC(c5ccccc5)C4=O)cc(C(F)(F)F)c3)on2)CC1` (stereo partly drawn) [Example 133, (3-(((1S,4S)-4-(Aminomethyl)cyclohexyl)-methyl)-1,2,3-oxadiazol-3-ium-5-yl)((3-(2-oxo-3-phenylpyrrolidin-1-yl)-5-(trifluoromethyl)-phenyl)carbamoyl)amide], the EC50 (read-out: ZIKA Cell_Nanoluc) is reported as 1000 to 20000 nM.
With `O=C([N-]c1c[n+](Cc2ccccn2)no1)Nc1cc(NC(=O)C2CCn3cncc3C2)cc(C(F)(F)F)c1` (stereo not drawn) [Example 80, (3-(Pyridin-2-ylmethyl)-1,2,3-oxadiazol-3-ium-5-yl)((3-(5,6,7,8-tetrahydroimidazo [1,5-a]pyridine-7-carboxamido)-5-(trifluoromethyl)phenyl)carbamoyl)amide] the EC50 [1] was greater than 20000 nM.
`O=C([N-]c1c[n+](Cc2ccccn2)no1)Nc1cc(NC(=O)C(F)(F)CN2CCCC2)cc(C(F)(F)F)c1` [Example 76] gave an EC50 (read-out: ZIKA Cell_Nanoluc) greater than 20000 nM.
`C[C@@H]1C[C@H]1c1cc(NC(=O)Cc2ccccc2)cc(NC(=O)[N-]c2c[n+](Cc3ccccn3)no2)c1` [Example 130, ((3-((1R,2R)-2-Methylcyclopropyl)-5-(2-phenylacetamido)phenyl)-carbamoyl)(3-(pyridin-2-ylmethyl)-1,2,3-oxadiazol-3-ium-5-yl)amide] showed an EC50 [1] of 1000 to 20000 nM.
In the case of `O=C(Cc1ccccc1)Nc1cc(NC(=O)[N-]c2c[n+](Cc3ccc(CO)cc3)no2)cc(C(F)(F)F)c1` [Example 102, (3-(4-(Hydroxymethyl)benzyl)-1,2,3-oxadiazol-3-ium-5-yl)((3-(2-phenylacetamido)-5-(trifluoromethyl)phenyl)carbamoyl)amide], the EC50 [1] is reported as 1000 to 20000 nM.
`COc1ncc(-c2ccc(C[n+]3cc([N-]C(=O)Nc4cc(NC(C)=O)cc(C(F)(F)F)c4)on3)cc2)c(C)n1` [Example 11] was tested, and the EC50 (read-out: ZIKA Cell_Nanoluc) was 1000 to 20000 nM.
`CN1Cc2cc(C(=O)Nc3cc(NC(=O)[N-]c4c[n+](Cc5ccccn5)no4)cc(C(F)(F)F)c3)sc2C1` [Example 39] gave an EC50 (read-out: ZIKA Cell_Nanoluc) of 1000 to 20000 nM.
Molecule `CCOC(=O)CN1CCC(C[n+]2cc([N-]C(=O)Nc3cc(NC(=O)Cc4ccccc4)cc(C(F)(F)F)c3)on2)CC1` [Example 140, (3-((1-(2-Ethoxy-2-oxoethyl)piperidin-4-yl)methyl)-1,2,3-oxadiazol-3-ium-5-yl)((3-(2-phenylacetamido)-5-(trifluoromethyl)phenyl)-carbamoyl)amide] has an EC50 [1] of 100 to 1000 nM.
`O=C([N-]c1c[n+](Cc2ccccn2)no1)Nc1cc(NC(=O)C2CS(=O)(=O)CCO2)cc(C(F)(F)F)c1` (stereo not drawn) [Example 88] gave an EC50 (read-out: ZIKA Cell_Nanoluc) greater than 20000 nM.
With `O=C([N-]c1c[n+](C[C@H]2CC[C@H](NCC(F)(F)F)CC2)no1)Nc1cc(N2CCC(c3ccccc3)C2=O)cc(C(F)(F)F)c1` (stereo partly drawn) [Example 137, ((3-(2-Oxo-3-phenylpyrrolidin-1-yl)-5-(trifluoromethyl)phenyl)carbamoyl)(3-(((1R,4R)-4-((2,2,2-trifluoroethyl)amino)-cyclohexyl)methyl)-1,2,3-oxadiazol-3-ium-5-yl)amide] the EC50 (read-out: ZIKA Cell_Nanoluc) was 100 to 1000 nM.
For `COc1ncc(-c2ccc(C[n+]3cc([N-]C(=O)Nc4cc(NC(=O)CC5CCCCC5)cc(C(F)(F)F)c4)on3)cc2)c(C)n1` [Example 8], the EC50 (read-out: ZIKA Cell_Nanoluc) was 1000 to 20000 nM.
`O=C(Cc1ccccc1)Nc1cc(NC(=O)[N-]c2c[n+](Cc3ccccn3)no2)cc(C(F)(F)F)c1` [Example 7, ((3-(2-Phenylacetamido)-5-(trifluoromethyl)phenyl)carbamoyl)(3-(pyridin-2-ylmethyl)-1,2,3-oxadiazol-3-ium-5-yl)amide] gave an EC50 [1] of 100 to 1000 nM.
In the case of `O=C([N-]c1c[n+](Cc2ccccn2)no1)Nc1cc(NC(=O)C2CCCc3cn[nH]c32)cc(C(F)(F)F)c1` (stereo not drawn) [Example 38, (3-(Pyridin-2-ylmethyl)-1,2,3-oxadiazol-3-ium-5-yl)((3-(4,5,6,7-tetrahydro-1H-indazole-7-carboxamido)-5-(trifluoromethyl)phenyl)carbamoyl)amide], the EC50 [1] is reported as 1000 to 20000 nM.
`C=CCOC(=O)C[n+]1cc([N-]C(=O)Nc2cc(NC(=O)Cc3ccccc3)cc(C(F)(F)F)c2)on1` [Example 97, (3-(2-(Allyloxy)-2-oxoethyl)-1,2,3-oxadiazol-3-ium-5-yl)((3-(2-phenylacetamido)-5-(trifluoromethyl)phenyl)carbamoyl)amide] was tested, and the EC50 [1] was greater than 20000 nM.
For `O=C(Cc1ccccc1)Nc1cc(NC(=O)[N-]c2c[n+](Cc3ccc(CO)cn3)no2)cc(C2CC2)c1` [Example 129, ((3-Cyclopropyl-5-(2-phenylacetamido)phenyl)-carbamoyl)(3-((5-(hydroxymethyl)pyridin-2-yl)methyl)-1,2,3-oxadiazol-3-ium-5-yl)amide], the EC50 [1] was 1000 to 20000 nM.
